The term pKi denotes −log10 of the Ki, conventionally taken in molar units.

This assay deals with T1, Muscarinic acetylcholine receptor M2 (Rattus norvegicus, UniProt P10980).
T1 sequence (P10980 whole entry): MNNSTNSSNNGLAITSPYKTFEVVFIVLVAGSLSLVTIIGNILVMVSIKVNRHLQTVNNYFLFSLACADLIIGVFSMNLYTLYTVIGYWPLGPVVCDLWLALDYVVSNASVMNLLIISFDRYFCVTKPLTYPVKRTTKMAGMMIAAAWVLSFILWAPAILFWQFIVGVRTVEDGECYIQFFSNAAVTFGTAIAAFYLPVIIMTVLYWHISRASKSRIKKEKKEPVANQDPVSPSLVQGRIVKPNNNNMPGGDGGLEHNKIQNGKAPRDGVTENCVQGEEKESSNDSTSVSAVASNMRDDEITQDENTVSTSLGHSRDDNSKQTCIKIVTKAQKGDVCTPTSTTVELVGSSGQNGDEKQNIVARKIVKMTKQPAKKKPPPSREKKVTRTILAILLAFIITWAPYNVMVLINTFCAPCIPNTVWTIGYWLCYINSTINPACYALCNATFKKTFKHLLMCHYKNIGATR

pKi: −log10 of the molar value.

As to `C[C@H]1OC(=O)C2C[C@H]3CCCC[C@@H]3[C@@H](/C=C/[C@@H]3CCC[C@H](C)N3C)C21` (stereo partly specified) [HIMBACINE], the pKi was 7.99.

Values taken from BindingDB's records for doi:10.1016/0024-3205(90)90472-4 (University of Arizona, 1990).
